The source made the active and inactive calls. The calls are words filed in the database; no cut-off is given here.
Assays:
[1] = test system: Mycolicibacterium smegmatis; experiment: Activity of AftB in Mycobacterium smegmatis membrane assessed as formation of biosynthetic products by TLC based assay; type: cell membranes
[2] = test system: Mycolicibacterium smegmatis; experiment: Activity of AftB in Mycobacterium smegmatis membrane/p60 fraction assessed as incorporation of DP[3H]A to compound to generate biotinylated trisaccharide with beta-(1 to 2) Araf residue by SPA assay

Activity [1] | Km [2] | SMILES
Active |  | C=CCCCO[C@H]1O[C@H](CO[C@H]2O[C@H](CO[C@H]3O[C@H](CO[C@H]4O[C@H](CO)[C@@H](O)[C@@H]4O)[C@@H](O)[C@@H]3O)[C@@H](O)[C@@H]2O)[C@@H](O)[C@@H]1O
 | 40.9 µM | O=C(CCCC[C@@H]1SC[C@@H]2NC(=O)N[C@@H]21)NCCSCCCCCO[C@H]1O[C@H](CO[C@H]2O[C@H](CO)[C@@H](O)[C@@H]2O)[C@@H](O)[C@@H]1O
Active |  | C=CCCCO[C@H]1O[C@H](CO[C@H]2O[C@H](CO)[C@@H](O)[C@@H]2O)[C@@H](O)[C@@H]1O
Active |  | C=CCCCO[C@H]1O[C@H](CO[C@H]2O[C@H](CO[C@H]3O[C@H](CO)[C@@H](O)[C@@H]3O)[C@@H](O)[C@@H]2O)[C@@H](O)[C@@H]1O
